We go through four molecules from patent US20090010888A1, “Use of cytochrome P450 reductase as insecticidal target” (priority 2004, published 2009).

Values joined by “and” are separate entries in the source; they are usually repeats but may differ in a detail not shown here. Identical values can stand only once. Like-named read-outs stand apart in the source and are kept apart here.

The target in one data set is T1, human CPR (Homo sapiens, UniProt P16435).
T1 sequence (P16435 43-677 limits assumed): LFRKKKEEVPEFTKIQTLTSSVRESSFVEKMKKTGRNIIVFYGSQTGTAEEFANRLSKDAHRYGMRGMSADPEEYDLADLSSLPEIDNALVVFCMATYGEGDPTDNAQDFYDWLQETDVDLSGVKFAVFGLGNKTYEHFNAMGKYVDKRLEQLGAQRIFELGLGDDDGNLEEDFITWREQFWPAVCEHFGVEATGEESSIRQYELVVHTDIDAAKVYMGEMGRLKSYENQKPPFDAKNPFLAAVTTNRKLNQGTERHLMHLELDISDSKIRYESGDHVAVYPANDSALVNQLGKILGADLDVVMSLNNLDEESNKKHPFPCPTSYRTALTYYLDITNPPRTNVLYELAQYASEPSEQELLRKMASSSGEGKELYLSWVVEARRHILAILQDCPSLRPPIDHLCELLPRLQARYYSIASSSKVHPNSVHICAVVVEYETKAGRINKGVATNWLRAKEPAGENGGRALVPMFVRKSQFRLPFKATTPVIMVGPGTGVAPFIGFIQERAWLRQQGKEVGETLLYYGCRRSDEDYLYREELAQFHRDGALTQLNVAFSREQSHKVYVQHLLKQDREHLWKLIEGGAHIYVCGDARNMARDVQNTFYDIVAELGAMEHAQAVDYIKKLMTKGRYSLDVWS
As to the kind of experiment: Cytochrome c reduction by purified human CPR (inhibition and kinetics). Type of data set: biochemical. As to conditions: for IC50: 25° C., 50 μM cytochrome c, 15 μM NADPH. As for the experimental part:
(§1) Errors are deviation from the fit of the curve (GraFit 5.06).
(§2) Cytochrome c assays and enzyme kinetic measurements were carried out 25° C. as described^19, using 0.75 pmol purified AgCPR or hCPR. Apparent kinetic parameters (non-linear fitting: Michaelis-Menten equation) and IC50 values were calculated using GraFit version 5.06.

Data set [1] deals with A. gambiae CYP6Z2 and AgCPR. As to the kind of experiment: 7-benzyloxyresorufin (BR) dealkylation, E. coli membranes coexpressing CYP6Z2 and AgCPR. The note with it: read-out: IC50 for inhibition of mosquito CYP6Z2 BR dealkylation; 5 μM BR, 125 microM NADPH, 37° C. The procedure: (§3) Measurement of P450 activity was carried out using E. coli membranes coexpressing A. gambiae CYP6Z2 and AgCPR or human CYP3A4 and human CPR. […] Rates were recorded for 5 min at 37° C. using a fluorescence plate reader (Labsystems Fluoroskan Ascent-FL) set to measure λEx 530 λEm585 (BR assay) or λEx 405 λEm530 (BQ assay). Percentage activities were calculated and IC50 curves were plotted using GraFit version 5.
(§4) For P450 assays, E. coli membranes co-expressing human CYP3A4 and CPR were produced as described. […] Plates were preincubated for 5 min at 37° C. before addition of 5 μl of 5 mM NADPH. Rates were recorded for 5 min at 37° C. using a fluorescence plate reader (Labsystems Fluoroskan Ascent-FL) set to measure λEx 530 λEm585 (BR assay) or λEx 405 λEm530 (BQ assay).
(§5) Percentage activities were calculated and IC50 curves were plotted using GraFit version 5.

Data set [2] concerns the target T2, A. gambiae CPR (Anopheles gambiae, UniProt Q86QH5, H459Y/V230A). The experiment in a line: 2′-5′-ADP Sepharose binding of CPR from whole fly extracts. As to conditions: crude extracts of A. gambiae.
Procedure: 0.1 g of frozen adult A. gambiae or D. melanogaster flies were added to a pre-chilled mortar and ground to a powder in the presence of liquid nitrogen. The powder was transferred to a 50 ml Falcon tube and 2.5 mls of cold solubilisation buffer (20 mM Tris-Cl pH 8; 10% glycerol; 100 mM KCl and 20 mM CHAPS) added. The suspensions were mixed on a rotary wheel at 4° C. for 2 hrs to solubilise the membrane bound proteins, then centrifuged (5 min; 12,000 rpm; 4° C.) to clarify. […] The clarified whole fly protein extracts were applied to the column and the flow-through collected. The column was washed with 5 ml of solubilisation buffer to remove non-binding proteins. To elute the bound proteins, 3×200 μl of 50 mM 2′ AMP in 0.5×solubilisation buffer was added to the mini-columns, and the 3×200 μl elution fractions collected in Eppendorf tubes. To detect CPR, 25 μl each of solubilised pre-column extract (total fly protein); flow through (unbound protein) and eluted proteins were run on a NuPAGE 4-12% Bis-Tris Gel (Invitrogen; UK) and transferred onto Protran® nitrocellulose membrane (Schleicher & Schuell; Germany) according to the manufacturer's instructions. The membrane was blocked overnight at 4° C. in TBST & 5% milk powder, then incubated for 1 hr with a 1:10000 dilution of anti-Ag CPR primary antibody. […]
Data set [3] addresses T3, human CYP3A4 and human CPR (Homo sapiens, UniProt P16435).
T3 sequence (P16435 1-677): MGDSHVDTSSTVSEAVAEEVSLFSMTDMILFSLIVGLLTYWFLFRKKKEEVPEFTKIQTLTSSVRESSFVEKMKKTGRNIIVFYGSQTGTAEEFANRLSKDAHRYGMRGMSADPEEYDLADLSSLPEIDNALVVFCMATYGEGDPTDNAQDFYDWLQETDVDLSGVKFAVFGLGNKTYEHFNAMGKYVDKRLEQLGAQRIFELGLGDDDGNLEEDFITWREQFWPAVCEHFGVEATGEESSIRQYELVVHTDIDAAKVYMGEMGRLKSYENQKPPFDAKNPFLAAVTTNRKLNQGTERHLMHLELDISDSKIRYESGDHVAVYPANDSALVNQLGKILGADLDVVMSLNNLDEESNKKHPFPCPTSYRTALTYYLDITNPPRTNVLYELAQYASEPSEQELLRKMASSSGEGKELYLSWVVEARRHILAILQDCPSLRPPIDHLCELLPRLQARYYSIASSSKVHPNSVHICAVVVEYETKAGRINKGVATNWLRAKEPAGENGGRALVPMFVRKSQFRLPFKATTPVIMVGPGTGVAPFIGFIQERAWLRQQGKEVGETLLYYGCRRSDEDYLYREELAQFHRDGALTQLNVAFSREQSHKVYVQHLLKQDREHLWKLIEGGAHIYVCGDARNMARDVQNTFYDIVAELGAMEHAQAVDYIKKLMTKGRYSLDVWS
As for the experimental part: as §3, §4, §5

In data set [4] the target is T2, A. gambiae CPR. As to the kind of experiment: biochemical. It is filed as biochemical. The procedure: as §1, §2

T2 sequence (Q86QH5 entry or part of it V230A/H459Y): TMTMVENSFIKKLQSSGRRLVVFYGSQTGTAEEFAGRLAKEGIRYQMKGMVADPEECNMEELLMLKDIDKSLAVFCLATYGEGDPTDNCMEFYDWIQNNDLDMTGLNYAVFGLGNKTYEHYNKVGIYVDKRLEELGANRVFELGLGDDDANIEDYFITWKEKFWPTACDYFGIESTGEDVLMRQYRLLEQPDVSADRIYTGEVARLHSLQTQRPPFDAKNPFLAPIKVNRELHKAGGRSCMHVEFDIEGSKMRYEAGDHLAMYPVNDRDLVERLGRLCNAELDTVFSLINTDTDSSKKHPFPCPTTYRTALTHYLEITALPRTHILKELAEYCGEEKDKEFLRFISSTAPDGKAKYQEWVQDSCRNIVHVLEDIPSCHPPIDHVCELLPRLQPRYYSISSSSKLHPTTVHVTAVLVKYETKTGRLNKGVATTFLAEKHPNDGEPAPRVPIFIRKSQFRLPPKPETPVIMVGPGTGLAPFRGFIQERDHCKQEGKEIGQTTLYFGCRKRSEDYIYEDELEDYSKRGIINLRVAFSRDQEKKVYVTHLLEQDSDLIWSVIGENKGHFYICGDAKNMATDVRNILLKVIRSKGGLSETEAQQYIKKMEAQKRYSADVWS

For orientation: IC50 means the midpoint of a concentration-inhibition curve. In the case of 2′,5′-ADP [2′-5′-ADP], the IC50 was 28 µM on human CPR (human CPR), 234 µM in data set [1] and 10 µM in data set [3]. Besides, the “binding of CPR to 2′-5′-ADP (Sepharose)” value at A. gambiae CPR [2] was “does not bind”.
In the case of `c1ccc([I+]c2ccccc2)cc1` [DPI, diphenyliodonium chloride], the IC50 against human CPR (human CPR) came to 361 µM; against A. gambiae CPR [4], 28 µM.
What is called Km is the substrate concentration at which the rate is half of its maximum. Turning to `NC(=O)C1=CN([C@@H]2O[C@H](COP(=O)(O)OP(=O)(O)OC[C@H]3O[C@@H](n4cnc5c(N)ncnc54)[C@H](OP(=O)(O)O)[C@@H]3O)[C@@H](O)[C@H]2O)C=CC1` [NADPH, reduced form of nicotinamide adenine dinucleotide phosphate], the Km on human CPR (human CPR, read-out: Km NADPH (apparent)) was 14 µM and 15 µM; on A. gambiae CPR [4] (read-out: Km NADPH (apparent)), 30 µM.
Turning to cytochrome c, the Km with human CPR (human enzyme, read-out: Km cytc) turned out to be 19 µM; with A. gambiae CPR [4] (mosquito enzyme, read-out: Km cytc), 23 µM.
